We go through four molecules from BindingDB's records for doi:10.1111/j.1747-0285.2010.01011.x (University of Mainz, 2010).

pKi: −log10 of the molar value.

A word on the pKi: it is −log10 of the Ki, conventionally taken in molar units. Read a low pKi as a high Ki.

Chain of 5-hydroxytryptamine receptor 2A (P28223 whole entry): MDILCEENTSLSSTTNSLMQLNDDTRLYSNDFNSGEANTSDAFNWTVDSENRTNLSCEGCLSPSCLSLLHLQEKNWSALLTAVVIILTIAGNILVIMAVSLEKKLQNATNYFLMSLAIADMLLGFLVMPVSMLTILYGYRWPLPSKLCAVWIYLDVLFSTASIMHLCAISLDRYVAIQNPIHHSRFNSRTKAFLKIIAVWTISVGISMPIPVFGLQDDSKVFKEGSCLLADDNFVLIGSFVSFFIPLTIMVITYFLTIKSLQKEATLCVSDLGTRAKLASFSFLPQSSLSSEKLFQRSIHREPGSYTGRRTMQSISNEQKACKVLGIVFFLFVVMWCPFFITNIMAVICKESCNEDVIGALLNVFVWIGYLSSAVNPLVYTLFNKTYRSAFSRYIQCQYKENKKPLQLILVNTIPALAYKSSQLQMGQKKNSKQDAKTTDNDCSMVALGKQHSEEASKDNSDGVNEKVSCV

This assay has as its target 5-hydroxytryptamine receptor 2A (Homo sapiens, UniProt P28223). As to the kind of experiment: Competition Binding Assay. Conditions: pH 7.4; 37 °C. On the procedure: 5-HT-2A receptor affinity was determined by a radioligand competition binding assay with GF-62 cells, a clonal cell line expressing high amounts of 5-HT-2A receptors.
Molecule `COc1c(OCCF)cccc1/C(=N/OCCN(C)C)C1CCN(CCc2ccc(F)cc2)CC1` [(E)-[2-(dimethylamino)ethoxy]({[3-(2-fluoroethoxy)-2-methoxyphenyl]({1-[2-(4-fluorophenyl)ethyl]piperidin-4-yl})methylidene})amine, 8] gave a pKi of 7.24. For `COc1cccc(C(O)C2CCN(CCn3c(=S)[nH]c4ccccc4c3=O)CC2)c1OC` (centres undefined) [3-(2-{4-[(2,3-dimethoxyphenyl)(hydroxy)methyl]piperidin-1-yl}ethyl)-2-sulfanylidene-1,2,3,4-tetrahydroquinazolin-4-one, 4b] the value was 6.41; for `COc1c(OCCF)cccc1C(O)C1CCN(CCn2c(=S)[nH]c3ccccc3c2=O)CC1` (centres undefined) [3-[2-(4-{[3-(2-fluoroethoxy)-2-methoxyphenyl](hydroxy)methyl}piperidin-1-yl)ethyl]-2-sulfanylidene-1,2,3,4-tetrahydroquinazolin-4-one, 4c], 6.45; for `COc1cccc(C(=O)C2CCN(CCn3c(=S)[nH]c4ccccc4c3=O)CC2)c1OC` [3-(2-{4-[(2,3-dimethoxyphenyl)carbonyl]piperidin-1-yl}ethyl)-2-sulfanylidene-1,2,3,4-tetrahydroquinazolin-4-one, 4a], 6.39.
